Literature values as cited in patent US6413525B1, “Methods of exfoliation using N-acetyl glucosamine” (Color Access, Inc., priority 1999, dated 2002).

Tested on: skin
Settings: as disclosed in WO97/12597

For `CC(=O)N[C@H]1C(O)O[C@H](CO)[C@@H](O)[C@@H]1O` (stereo partly drawn) [N-acetyl-D-glucosamine], the “efficacy as a topical desquamating agent” value is given as “not found to be effective”.
